# Data from PubChem BioAssay AID1963961 (Molecular Pharmacology Branch, DTP, NCI, 2024).
# Test system: K98450-129-R-PDC multicell spheroids, viability
# Experiment: Anticancer human tumor K98450-129-R-PDC patient-derived colon adenocarcinoma cell line growth inhibition [PI3K]
# Conditions: for IC50: curve of first compound; for viability, T/C: stronger effect = lower value
# Summary of the method: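 Viability of mixed-cell spheroids was determined after exposure to pairwise combinations, one partner being inavolisib, alpelisib, duvelisib or copanlisib. Highest tested concentration matched clinical Cmax where known and 10 microM where not, descending in half-log steps.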
# [1] = second compound 0.0316 µM, first compound 0.0316 µM
# [2] = second compound 0.0316 µM, first compound 0.1 µM
# [3] = second compound 0.1 µM, first compound 0.0316 µM
# [4] = second compound 0.1 µM, first compound 0.1 µM
# [5] = second compound 0.316 µM, first compound 0.0316 µM
# [6] = second compound 0.316 µM, first compound 0.1 µM
# [7] = second compound 1 µM, first compound 0.0316 µM
# [8] = second compound 1 µM, first compound 0.1 µM
# 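Note: spheroids exposed to agents for seven days before read-out.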
smiles,measurement,setting,value
CC(=O)c1c(C)c2cnc(Nc3ccc(N4CCNCC4)cn3)nc2n(C2CCCC2)c1=O + Cc1nc(NC(=O)N2CCCC2C(N)=O)sc1-c1ccnc(C(C)(C)C(F)(F)F)c1,IC50,second compound 0.0316 µM,> 0.1 µM
same,IC50,second compound 0.1 µM,> 0.1 µM
same,IC50,second compound 0.316 µM,> 0.1 µM
same,IC50,second compound 1 µM,> 0.1 µM
same,IC50,second compound 3.16 µM,> 0.1 µM
same,IC50,second compound 10 µM,> 0.1 µM
same,"viability, T/C","second compound 0.0316 µM, first compound 0.000316 µM",110%
same,"viability, T/C","second compound 0.0316 µM, first compound 0.001 µM",101%
same,"viability, T/C","second compound 0.0316 µM, first compound 0.00316 µM",104%
same,"viability, T/C","second compound 0.0316 µM, first compound 0.01 µM",104%
same,"viability, T/C",[1],100%
same,"viability, T/C",[2],97.9%
same,"viability, T/C","second compound 0.1 µM, first compound 0.000316 µM",108%
same,"viability, T/C","second compound 0.1 µM, first compound 0.001 µM",95.2%
same,"viability, T/C","second compound 0.1 µM, first compound 0.00316 µM",97.9%
same,"viability, T/C","second compound 0.1 µM, first compound 0.01 µM",93.7%
same,"viability, T/C",[3],106%
same,"viability, T/C",[4],98%
same,"viability, T/C","second compound 0.316 µM, first compound 0.000316 µM",104%
same,"viability, T/C","second compound 0.316 µM, first compound 0.001 µM",107%
same,"viability, T/C","second compound 0.316 µM, first compound 0.00316 µM",95.3%
same,"viability, T/C","second compound 0.316 µM, first compound 0.01 µM",93.3%
same,"viability, T/C",[5],103%
same,"viability, T/C",[6],99%
same,"viability, T/C","second compound 1 µM, first compound 0.000316 µM",90%
same,"viability, T/C","second compound 1 µM, first compound 0.001 µM",92.9%
same,"viability, T/C","second compound 1 µM, first compound 0.00316 µM",91.3%
same,"viability, T/C","second compound 1 µM, first compound 0.01 µM",89.7%
same,"viability, T/C",[7],98.8%
same,"viability, T/C",[8],95.9%
same,"viability, T/C","second compound 3.16 µM, first compound 0.000316 µM",88.2%
same,"viability, T/C","second compound 3.16 µM, first compound 0.001 µM",86.8%
same,"viability, T/C","second compound 3.16 µM, first compound 0.00316 µM",84.6%
same,"viability, T/C","second compound 3.16 µM, first compound 0.01 µM",86.3%
same,"viability, T/C","second compound 3.16 µM, first compound 0.0316 µM",92.1%
same,"viability, T/C","second compound 3.16 µM, first compound 0.1 µM",86.3%
same,"viability, T/C","second compound 10 µM, first compound 0.000316 µM",79.4%
same,"viability, T/C","second compound 10 µM, first compound 0.001 µM",74.6%
same,"viability, T/C","second compound 10 µM, first compound 0.00316 µM",77.3%
same,"viability, T/C","second compound 10 µM, first compound 0.01 µM",79.8%
same,"viability, T/C","second compound 10 µM, first compound 0.0316 µM",80.9%
same,"viability, T/C","second compound 10 µM, first compound 0.1 µM",70.3%
Cn1ncc(Cl)c1-c1cc(C(=O)NC(CN)Cc2cccc(F)c2)sc1Cl (centres undefined) + COc1c(OCCCN2CCOCC2)ccc2c3n(c(=NC(=O)c4cnc(N)nc4)nc12)CCN3,IC50,second compound 0.00316 µM,> 10 µM
same,IC50,second compound 0.01 µM,> 10 µM
same,IC50,second compound 0.0316 µM,> 10 µM
same,IC50,second compound 0.1 µM,> 10 µM
same,IC50,second compound 0.316 µM,> 10 µM
same,IC50,second compound 1 µM,> 10 µM
same,"viability, T/C","second compound 0.00316 µM, first compound 0.0316 µM",112%
same,"viability, T/C","second compound 0.00316 µM, first compound 0.1 µM",101%
same,"viability, T/C","second compound 0.00316 µM, first compound 0.316 µM",99.2%
same,"viability, T/C","second compound 0.00316 µM, first compound 1 µM",98.8%
same,"viability, T/C","second compound 0.00316 µM, first compound 3.16 µM",89.2%
same,"viability, T/C","second compound 0.00316 µM, first compound 10 µM",63.9%
same,"viability, T/C","second compound 0.01 µM, first compound 0.0316 µM",117%
same,"viability, T/C","second compound 0.01 µM, first compound 0.1 µM",103%
same,"viability, T/C","second compound 0.01 µM, first compound 0.316 µM",103%
same,"viability, T/C","second compound 0.01 µM, first compound 1 µM",83.5%
same,"viability, T/C","second compound 0.01 µM, first compound 3.16 µM",78.9%
same,"viability, T/C","second compound 0.01 µM, first compound 10 µM",76%
same,"viability, T/C",[1],86.9%
same,"viability, T/C",[2],99.8%
same,"viability, T/C","second compound 0.0316 µM, first compound 0.316 µM",90.9%
same,"viability, T/C","second compound 0.0316 µM, first compound 1 µM",78.9%
same,"viability, T/C","second compound 0.0316 µM, first compound 3.16 µM",89%
same,"viability, T/C","second compound 0.0316 µM, first compound 10 µM",58.5%
same,"viability, T/C",[3],72.4%
same,"viability, T/C",[4],70.4%
same,"viability, T/C","second compound 0.1 µM, first compound 0.316 µM",78.9%
same,"viability, T/C","second compound 0.1 µM, first compound 1 µM",83.3%
same,"viability, T/C","second compound 0.1 µM, first compound 3.16 µM",69.5%
same,"viability, T/C","second compound 0.1 µM, first compound 10 µM",70.3%
same,"viability, T/C",[5],64.6%
same,"viability, T/C",[6],68.4%
same,"viability, T/C","second compound 0.316 µM, first compound 0.316 µM",70.6%
same,"viability, T/C","second compound 0.316 µM, first compound 1 µM",47.8%
same,"viability, T/C","second compound 0.316 µM, first compound 3.16 µM",80.4%
same,"viability, T/C","second compound 0.316 µM, first compound 10 µM",51%
same,"viability, T/C",[7],52.4%
same,"viability, T/C",[8],71.5%
same,"viability, T/C","second compound 1 µM, first compound 0.316 µM",48.7%
same,"viability, T/C","second compound 1 µM, first compound 1 µM",65.7%
same,"viability, T/C","second compound 1 µM, first compound 3.16 µM",59.8%
same,"viability, T/C","second compound 1 µM, first compound 10 µM",41.7%
